Assay results: patent publication US11415579B2, “Assay for measuring a rate of reaction between a target and a ligand candidate” (Imperial College Innovations Ltd., priority 2016, dated 2022)

How the values were obtained:
[1] = target: T1, Cdk2(T182C) (C177A) (Homo sapiens, UniProt P24941, C177A/T182C); experiment: Kinetic thiol consumption assay with Cdk2 mutant T182C; type: binding; design: key to Rate enhancement, Cdk2 T182C: rate constant with Cdk2 ÷ rate constant with model thiol (fold); conditions: additional mutation C177A; for Rate constant with Cdk2 T182C: Protein: Cdk2, cysteine position T182C, in h^-1
T1 construct: poly-histidine; made in house; host or cells: E. coli
Method in brief: (§1)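 His-tagged single-surface-cysteine Cdk2 mutants (C177A background) from E. coli, 5 μM in degassed phosphate buffer pH 8, pre-treated with immobilized TCEP beads. Fluorescence (ex/em 380/470 nm) read after 1 h at room temperature, normalized to DMSO/thiol-only control; first-order decay fits gave rate constants, divided by model-thiol rate for rate enhancement.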

[2] = target: T2, Cdk2(S276C) (C177A) (Homo sapiens, UniProt P24941, C177A/S276C); experiment: Kinetic thiol consumption assay with Cdk2 mutant S276C; type: binding; design: key to Rate enhancement, Cdk2 S276C: rate constant with Cdk2 ÷ rate constant with model thiol (fold); conditions: additional mutation C177A; for Rate constant with Cdk2 S276C: Protein: Cdk2, cysteine position S276C, in h^-1
T2 construct: poly-histidine; made in house; host or cells: E. coli
Method in brief: as §1

[3] = target: T3, Cdk2[C177A, F80C, K278C] (Homo sapiens, UniProt P24941, C177A/F80C/K278C); experiment: Kinetic thiol consumption assay with mutant Cdk2 as model thiol; type: binding; design: unit not given here; conditions: 500 μM ligand, 5 μM thiol, phosphate buffer pH 8
T3 construct: poly-histidine; made in house; host or cells: E. coli
Method in brief: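 Model thiol: His-tagged human Cdk2 C177A/F80C/K278C (two engineered surface cysteines), E. coli-expressed, 5 μM in degassed phosphate buffer pH 8 with immobilized TCEP beads (2% v/v). Fluorescence (ex/em 380/470 nm) followed over time at room temperature, normalized to DMSO/thiol control. First-order decay fit gives rate constants.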

[4] = target: T4, Cdk2(R122C) (C177A) (Homo sapiens, UniProt P24941, C177A/R122C); experiment: Kinetic thiol consumption assay with Cdk2 mutant R122C; type: binding; design: key to Rate enhancement, Cdk2 R122C: rate constant with Cdk2 ÷ rate constant with model thiol (fold); conditions: additional mutation C177A
T4 construct: poly-histidine; made in house; host or cells: E. coli
Method in brief: as §1

[5] = target: T5, Cdk2(H71C) (C177A) (Homo sapiens, UniProt P24941, C177A/H71C); experiment: Kinetic thiol consumption assay with Cdk2 mutant H71C; type: binding; design: key to Rate enhancement, Cdk2 H71C: rate constant with Cdk2 ÷ rate constant with model thiol (fold); conditions: additional mutation C177A
T5 construct: poly-histidine; made in house; host or cells: E. coli
Method in brief: as §1

[6] = target: T6, Cdk2(N272C) (C177A) (Homo sapiens, UniProt P24941, C177A/N272C); experiment: Kinetic thiol consumption assay with Cdk2 mutant N272C; type: binding; design: key to Rate enhancement, Cdk2 N272: rate constant with Cdk2 ÷ rate constant with model thiol (fold); conditions: for Rate enhancement, Cdk2 N272: Cdk2 N272, additional mutation C177A; for Rate constant with Cdk2 N272C: Protein: Cdk2, cysteine position N272C, additional mutation C177A, in h^-1
T6 construct: poly-histidine; made in house; host or cells: E. coli
Method in brief: as §1

[7] = Kinetic thiol consumption assay with model thiol glutathione; type: physicochemical; design: Rate constant with glutathione (k(GSH)): unit not given here; conditions: for Rate constant with glutathione (k(GSH)): 500 μM ligand, 5 μM thiol, phosphate buffer pH 8; for Rate constant with Glutathione: Protein: Glutathione, cysteine position NA, in h-1
Method in brief: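 GSH 5 μM, degassed phosphate buffer pH 8, TCEP beads 2% v/v; acrylamide added; RT, 1 h; fluorescence ex/em 380/470 nm; normalized to DMSO/thiol control; k from first-order exponential decay fit.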

[8] = target: T7, Cdk2(S181C) (C177A) (Homo sapiens, UniProt P24941, C177A/S181C); experiment: Kinetic thiol consumption assay with Cdk2 mutant S181C; type: binding; design: key to Rate enhancement, Cdk2 S181C: rate constant with Cdk2 ÷ rate constant with model thiol (fold); conditions: additional mutation C177A; for Rate constant with Cdk2 S181C: Protein: Cdk2, cysteine position S181C, in h^-1
T7 construct: poly-histidine; made in house; host or cells: E. coli
Method in brief: as §1

[9] = target: T8, human cyclin-dependent kinase 2 (Cdk2) (Homo sapiens, UniProt P24941); experiment: Kinetic thiol consumption assay with wild type Cdk2 (C177); type: binding; design: key to Rate enhancement, Cdk2 WT: k(Cdk2) divided by k(model thiol); Rate constant with Cdk2 (k(Cdk2)): unit not given here; conditions: for Rate constant with Cdk2 (k(Cdk2)): 500 μM ligand, 5 μM thiol, phosphate buffer pH 8; for Rate enhancement, Cdk2 WT: no additional mutations; for Rate constant with Cdk2 WT: Protein: Cdk2, cysteine position WT, in h^-1; for k(Cdk2)/k(Cdk2_mut) rate enhancement: model thiol Cdk2[C177A, F80C, K278C]; for k(Cdk2)/k(GSH) rate enhancement: model thiol glutathione
T8 construct: poly-histidine; made in house; host or cells: E. coli
Method in brief: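 Rate constants came from first-order exponential decay fits of normalized fluorescence against time, with thiol (5 μM) in degassed pH 8 phosphate buffer containing 2% v/v TCEP beads and reads after 1 h at room temperature.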

[10] = target: T9, Cdk2(C177A, F80C) (Homo sapiens, UniProt P24941, C177A/F80C); experiment: Kinetic thiol consumption assay with Cdk2 mutant F80C, incl. kobs versus concentration (Kd, k2); type: binding; design: key to Rate enhancement, Cdk2 F80C: Cdk2 rate constant divided by model-thiol rate constant; conditions: additional mutation C177A; for Rate constant with Cdk2 F80C: Protein: Cdk2, cysteine position F80C, in h^-1
T9 construct: poly-histidine; made in house; host or cells: E. coli
Method in brief: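 His-tagged Cdk2(C177A/F80C) from E. coli or model thiol, 5 μM in degassed phosphate buffer pH 8 with TCEP beads, reacted with acrylamide ligands; fluorescence (ex/em 380/470 nm) normalized to DMSO control and fitted to first-order decay for kobs. Kd and k2 obtained from hyperbolic fit of kobs versus ligand concentration.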

Row | Structure (SMILES) | Rate enhancement, Cdk2 T182C [1] | Rate constant with Cdk2 T182C [1] | Rate enhancement, Cdk2 S276C [2] | Rate constant with Cdk2 S276C [2] | Rate constant with Cdk2[C177A, F80C, K278C] (k(Cdk2_mut)) [3] | Rate enhancement, Cdk2 R122C [4] | Rate enhancement, Cdk2 H71C [5] | Rate enhancement, Cdk2 N272 [6] | Rate constant with Cdk2 N272C [6] | Rate constant with glutathione (k(GSH)) [7] | Rate constant with Glutathione [7] | Rate enhancement, Cdk2 S181C [8] | Rate constant with Cdk2 S181C [8] | Rate constant with Cdk2 (k(Cdk2)) [9] | Rate enhancement, Cdk2 WT [9] | Rate constant with Cdk2 WT [9] | k(Cdk2)/k(Cdk2_mut) rate enhancement [9] | k(Cdk2)/k(GSH) rate enhancement [9] | Rate enhancement, Cdk2 F80C [10] | Rate constant with Cdk2 F80C [10] | also measured
1 | C=CC(=O)NC(Cc1ccccc1)C(O)CF (stereo not drawn) [EL-1164] | 0.1829 | 0.001408 | 2.9904E−12 | 2.302E−14 | 0.00073 | 0 | 0 | 0.09396 | 0.0007233 | 0.00485 | 0.007698 | 0.9819 | 0.007559 | 0.00239 | 0.4757 | 0.003662 | 3.262 | 0.4934 | 0.2794 | 0.002151 | 
2 | C=CC(=O)N1CCCN2C(=O)CCC12c1ccc(OC)cc1 (stereo not drawn) [EL-1168] | 2.927 | 0.03904 | 0.6022 | 0.008034 | 0.00175 | 0.3022 | 0.8583 | 0.6555 | 0.008745 | 0.01343 | 0.01334 | 1.741 | 0.02323 | 0.00974 | 0.7298 | 0.009736 | 5.551 | 0.7249 | 0.3123 | 0.004166 | Rate constant with Cdk2 R122C ([4]; Protein: Cdk2, cysteine position R122C, in h-1): 0.004032; Rate constant with Cdk2 H71C ([5]; Protein: Cdk2, cysteine position H71C, in h^-1): 0.01145
